Experimental findings from patent US20180099937A1, “NOVEL ARYL-CYANOGUANIDINE COMPOUNDS” (Bayer Pharma Aktiengesellschaft, priority 2015, published 2018) are described below.

In experiment [1] the target is T1, SMYD2 (Homo sapiens, UniProt Q9NRG4). Description: In Cell Western (ICW) cell-based assay for detection of SMYD2 methylation activity. Details: expressed in transfected cells; host or cells: KYSE-150 (human esophageal carcinoma, DSMZ ACC 375). The settings on record: SMYD2 overexpressing KYSE-150 cells, 72 h treatment, p53K370me1 signal normalized to DRAQ5; read-out: IC50 [mol/l] (ICW assay). The source says:
1.2 Cell-Based Assay for Detection of SMYD2 methylation Activity
For the detection of SMYD2 cellular methylation activity an In Cell Western (ICW) assay was established. This assay allows rapid processing of multiple samples for SMYD2 methylation derived immunofluorescence signals, with normalization to cell number via the use of the nucleic acid dye DRAQS. KYSE-150 cells (human esophageal carcinoma cell line; DSMZ-German Collection of Microorganisms and Cell Cultures; No: ACC 375) have been stably transfected with a construct expressing wild-type SMYD2 (NCBI Reference Sequence: NP_064582.2). To detect SMYD2-mediated methylation signals in cells, a customized antibody directed against mono-methylated lysine 370 on protein p53 (p53K370me1) was used. The polyclonal antibody was generated (Eurogentec) against a p53 peptide containing the mono-methylated K370 epitope as described elsewhere (Huang et al., Nature, 2006, 444(7119):629-32).
For conducting the ICW assay 5000 SMYD2 overexpressing KYSE-150 cells/well were seeded in 96-well plates (SIGMA) and cultivated for 24 h. As a control for maximal inhibition of ectopic methylation activity, non-transfected KYSE-150 cells were used. Cells were grown in 49% RPMI 1640 with 49% Ham's F12 media supplemented with 2% heat inactivated fetal calf serum (FCS). For determination of SMYD2 inhibitory activity, cells were treated for 72 h in the presence of compounds or with DMSO. Cells were treated with compounds to be tested at a final concentration range varying from 3.9×10^−8 to 5×10^−6 M. Media was removed and 3.7% (w/v) formaldehyde in PBS was added for 20 min. After two washes with phosphate buffered saline (PBS), 0.25% (v/v) Triton X100 in PBS was added for 15 minutes of permeabilization. After one washing step with PBS, cells were blocked for 1 h with 5% (w/v) non-fat dry milk in PBS. Fixed cells were exposed to primary […] antibody in 5% non-fat dry milk in PBS for 24 h. One row of cells on each plate was not exposed to p53K370me1 antibody and was reserved for background control measurements. The wells were washed three times with PBS, then secondary IR800 conjugated antibody (LI-COR) and DNA-intercalating dye, 5 μM DRAQ5 (LI-COR) were added for 3 h. After 5 washes with PBS, the fluorescence in each well was measured on an Odyssey (LI-COR) scanner at 800 nm (p53K370me1 signal; 764 nm excitation) and 700 nm (DRAQS signal; 683 nm excitation). Fluorescence intensity was quantified and normalized to background and DRAQ5 signals. IC50 values were calculated by fitting the normalized inhibition data to a 4-parameter logistic equation (Minimum, Maximum, IC50, Hill; Y=Max+(Min−Max)/(1+(X/IC50)Hill)) for each tested compound. For IC50 determination C0 (=no inhibition) was defined as the signal measured for DMSO treated controls. Ci (maximal inhibition) was defined as the signal measured for non SMYD2 overexpressing KYSE150 cells.

Experiment [2] concerns the target T1, SMYD2. Nature of the experiment: Scintillation Proximity Assay (SPA) for detection of SMYD2 enzymatic inhibition. Format: biochemical. Details: The SMYD2 full length enzyme was produced in-house by expression (with an N-terminal 6× His tag) in E. coli; 6xHis (N); made in house; host or cells: E. coli. Particulars: SMYD2 full length enzyme, p53 Peptide substrate 1.0 μM, 3H-SAM 60 nM; read-out: IC50 [mol/l] (SPA Assay). The procedure, abridged:
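Full-length N-His SMYD2 from E. coli (typically 3 nM) was preincubated with compounds (0.1 nM–20 μM) for 15 min, then reacted 30 min at 22° C with 60 nM 3H-SAM and 1.0 μM biotinylated p53 peptide in Tris pH 9.0. Streptavidin SPA beads read methylation, and IC50 came from a 4-parameter fit.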
A general note: SPA uses beads or plates that emit light when radiolabelled molecules are held near them.

Molecules are shown by their SMILES.

T1 sequence (Q9NRG4 whole entry): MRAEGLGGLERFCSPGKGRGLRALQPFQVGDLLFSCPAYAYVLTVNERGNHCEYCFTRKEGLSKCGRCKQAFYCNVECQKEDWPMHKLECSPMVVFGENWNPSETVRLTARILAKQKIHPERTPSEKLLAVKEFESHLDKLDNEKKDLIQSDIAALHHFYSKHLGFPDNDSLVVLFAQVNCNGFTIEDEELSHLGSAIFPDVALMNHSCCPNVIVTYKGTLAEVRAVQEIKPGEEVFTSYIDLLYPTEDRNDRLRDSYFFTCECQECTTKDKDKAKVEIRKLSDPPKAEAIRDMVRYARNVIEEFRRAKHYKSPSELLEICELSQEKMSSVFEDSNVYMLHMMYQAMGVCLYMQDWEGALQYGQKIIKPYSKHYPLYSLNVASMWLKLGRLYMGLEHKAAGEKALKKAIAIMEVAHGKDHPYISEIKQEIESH

In the case of `CCN(C(=O)[C@H]1CCCN1)C1CN(/C(=N\C#N)Nc2cccc(OC(F)(F)F)c2F)N=C1c1ccc(Cl)c(Cl)c1` (single isomer, unassigned) [Example 21.2, N-[1-{N′-Cyano-N-[2-fluoro-3-(trifluoromethoxy)phenyl]carbamimidoyl}-3-(3,4-dichlorophenyl)-4,5-dihydro-1H-pyrazol-4-yl]-N-ethyl-D-prolinamide], the results for the IC50 in experiment [1] and in experiment [2] were 228 nM and 878 nM, respectively.

Regarding `CCN(C(=O)[C@H]1CCCN1)C1CN(/C(=N\C#N)Nc2ccc(F)c(OC(F)(F)F)c2)N=C1c1ccc(Cl)c(Cl)c1` (single isomer, unassigned) [Example 22.1, N-[1-{N′-Cyano-N-[4-fluoro-3-(trifluoromethoxy)phenyl]carbamimidoyl}-3-(3,4-dichlorophenyl)-4,5-dihydro-1H-pyrazol-4-yl]-N-ethyl-D-prolinamide], the IC50 in experiment [1] was 96.5 nM; in experiment [2], 30.5 nM.

In the case of `CCN(C(=O)[C@H]1CCN1)C1CN(/C(=N\C#N)Nc2cccc(OC(F)F)c2)N=C1c1ccc(Cl)c(C)c1` (single isomer, unassigned) [Example 36.1], the IC50 was 14.8 nM in experiment [1] and 10.5 nM in experiment [2].

As to `CCN(C(=O)[C@H]1C[C@@H](F)CN1)C1CN(/C(=N\C#N)Nc2cccc(OC(F)F)c2)N=C1c1ccc(Cl)c(C)c1` (single isomer, unassigned) [Example 38.1], the IC50 in experiment [1] turned out to be 2.55 nM; in experiment [2], 30 nM.
